Test results: ChEMBL document CHEMBL6127067, “Discovery, Biosynthesis, and Characterization of Rodencin, a Two-Component Lanthipeptide, Harboring d-Amino Acids Introduced by the Unusual Dehydrogenase RodJA” (J Nat Prod, 2024)
Activity calls are given as the source filed them. No cut-off for these calls is given here.

Columns and labels:
[1] = tested on: Staphylococcus aureus; assay: Antimicrobial activity against Staphylococcus aureus LMG 8224 assessed as absence of visible growth measured after 20 hrs by broth dilution assay; assay type: functional, organism-based
[2] = tested on: Staphylococcus aureus; assay: Antimicrobial activity against Staphylococcus aureus LMG 15975 assessed as absence of visible growth measured after 20 hrs by broth dilution assay; assay type: functional, organism-based
[3] = tested on: Listeria monocytogenes; assay: Antimicrobial activity against Listeria monocytogenes LMG 10470 assessed as absence of visible growth measured after 20 hrs by broth dilution assay; assay type: functional, organism-based
[4] = tested on: Bacillus cereus; assay: Antimicrobial activity against Bacillus cereus ATCC14579 assessed as absence of visible growth measured after 20 hrs by broth dilution assay; assay type: functional, organism-based
[5] = tested on: Bacillus subtilis; assay: Antimicrobial activity against Bacillus subtilis 168 assessed as absence of visible growth measured after 20 hrs by broth dilution assay; assay type: functional, organism-based
[6] = tested on: Enterococcus faecium; assay: Antimicrobial activity against Enterococcus faecium LMG 16003 assessed as absence of visible growth measured after 20 hrs by broth dilution assay; assay type: functional, organism-based
[7] = tested on: Lactococcus lactis; assay: Antimicrobial activity against Lactococcus lactis NZ9000 assessed as absence of visible growth measured after 20 hrs by broth dilution assay; assay type: functional, organism-based
[8] = tested on: Micrococcus flavus; assay: Antimicrobial activity against Micrococcus flavus NIZO B423 assessed as absence of visible growth measured after 20 hrs by broth dilution assay; assay type: functional, organism-based
[9] = tested on: Escherichia coli; assay: Antimicrobial activity against Escherichia coli LMG 8223 assessed as absence of visible growth measured after 20 hrs by broth dilution assay; assay type: functional, organism-based
[10] = tested on: Salmonella enterica; assay: Antimicrobial activity against Salmonella enterica LMG 07233 assessed as absence of visible growth measured after 20 hrs by broth dilution assay; assay type: functional, organism-based
[11] = tested on: Listeria monocytogenes; assay: Antimicrobial activity against Listeria monocytogenes LMG 10470 assessed as absence of visible growth in presence of Rod-beta measured after 20 hrs by broth dilution assay; assay type: functional, organism-based
[12] = tested on: Bacillus cereus; assay: Antimicrobial activity against Bacillus cereus ATCC14579 assessed as absence of visible growth in presence of Rod-beta measured after 20 hrs by broth dilution assay; assay type: functional, organism-based
[13] = tested on: Enterococcus faecium; assay: Antimicrobial activity against Enterococcus faecium LMG 16003 assessed as absence of visible growth in presence of Rod-beta measured after 20 hrs by broth dilution assay; assay type: functional, organism-based
[14] = tested on: Staphylococcus aureus; assay: Antimicrobial activity against methicillin-resistant Staphylococcus aureus assessed as absence of visible growth in presence of Rod-beta measured after 20 hrs by broth dilution assay; assay type: functional, organism-based
[15] = Binding affinity to externally added Lipid II (unknown origin) in Micrococcus flavus NIZO B423 broth assessed as decrease in antimicrobial activity against Micrococcus flavus by Spot-on-lawn assay
[16] = tested on: Cell membrane; assay: Induction of inner membrane permeability in Micrococcus flavus NIZO B423 using DNA-binding stain propidium iodide by membrane integrity assay; assay type: subcellular
[17] = tested on: Cell membrane; assay: Induction of inner membrane permeability in Micrococcus flavus NIZO B423 using DNA-binding stain propidium iodide in presence of Rod beta by membrane integrity assay
[18] = tested on: Cell membrane; assay: Induction of outer membrane permeability in Escherichia coli using 1-N-Nphenylnaphthylamine fluorescent probe by microplate reader; assay type: subcellular
[19] = tested on: Cell membrane; assay: Induction of outer membrane permeability in Escherichia coli using 1-N-Nphenylnaphthylamine fluorescent probe in presence of Rod beta by microplate reader; assay type: subcellular
[20] = tested on: Listeria monocytogenes; assay: Antimicrobial activity against Listeria monocytogenes LMG 10470 assessed as absence of visible growth in presence of Rod-alpha measured after 20 hrs by broth dilution assay; assay type: functional, organism-based
[21] = tested on: Bacillus cereus; assay: Antimicrobial activity against Bacillus cereus ATCC14579 assessed as absence of visible growth in presence of Rod-alpha measured after 20 hrs by broth dilution assay; assay type: functional, organism-based
[22] = tested on: Enterococcus faecium; assay: Antimicrobial activity against Enterococcus faecium LMG 16003 assessed as absence of visible growth in presence of Rod-alpha measured after 20 hrs by broth dilution assay; assay type: functional, organism-based
[23] = tested on: Staphylococcus aureus; assay: Antimicrobial activity against methicillin-resistant Staphylococcus aureus assessed as absence of visible growth in presence of Rod-alpha measured after 20 hrs by broth dilution assay; assay type: functional, organism-based
[24] = tested on: Cell membrane; assay: Induction of inner membrane permeability in Micrococcus flavus NIZO B423 using DNA-binding stain propidium iodide in presence of Rod alpha by membrane integrity assay
[25] = tested on: Cell membrane; assay: Induction of outer membrane permeability in Escherichia coli using 1-N-Nphenylnaphthylamine fluorescent probe in presence of Rod alpha by microplate reader; assay type: subcellular

| Structure (SMILES) | Activity [1] | Activity [2] | Activity [3] | Activity [4] | Activity [5] | Activity [6] | Activity [7] | Activity [8] | Activity [9] | Activity [10] | Activity [16] | Activity [18] | also measured |
| --- | --- | --- | --- | --- | --- | --- | --- | --- | --- | --- | --- | --- | --- |
| C/C=C(\NC(=O)[C@H](CC(N)=O)NC(=O)/C(=C/C)NC(=O)[C@@H]1CCSC[C@@H](N)C(=O)N1)C(=O)N[C@@H](Cc1ccccc1)C(=O)N[C@H](C)C(=O)N[C@@H](CC(C)C)C(=O)N[C@@H]1CSC[C@H](C(=O)N[C@H]2CCSC[C@H]3NC(=O)[C@H](CCC(=O)O)NC(=O)[C@H](CCCCN)NC(=O)[C@@H](CSC[C@H](C(=O)O)NC(=O)[C@H](Cc4c[nH]c5ccccc45)NC(=O)[C@H](C)NC(=O)[C@H](CCSC)NC3=O)NC(=O)[C@H](C(C)C)NC2=O)NC(=O)[C@H](Cc2c[nH]c3ccccc23)NC(=O)CNC(=O)CNC(=O)[C@H](CCCCN)NC(=O)[C@H](CC(N)=O)NC(=O)CNC(=O)[C@H](Cc2c[nH]c3ccccc23)NC(=O)[C@H](Cc2ccc(O)cc2)NC(=O)[C@H](CC(=O)O)NC1=O | inactive | inactive | inactive | inactive | inactive | inactive | inactive | inactive | inactive | inactive | inactive | inactive | Activity [11]: Active; Activity [12]: Active; Activity [13]: Active; Activity [14]: Active; Activity [15]: Active; Activity [17]: Active; Activity [19]: Active |
| C/C=C(/NC(=O)[C@@H](N)Cc1c[nH]c2ccccc12)C(=O)N1CCC[C@H]1C(=O)N[C@@H](C)C(=O)N[C@@H](CC(C)C)C(=O)N[C@H](C)C(=O)N[C@H](C(=O)N[C@H](C(=O)N[C@H](CC)C(=O)NCC(=O)N[C@@H](Cc1ccc(O)cc1)C(=O)N[C@H](C(=O)N[C@@H]1CSC[C@H](C(=O)N2CCC[C@H]2C(=O)N[C@H]2CCSC[C@H](C(=O)N[C@H]3CCSC[C@H](C(=O)O)NC(=O)[C@H](C)NC(=O)[C@H](CCCNC(=N)N)NC3=O)NC(=O)[C@H](C)NC(=O)[C@H]([C@@H](C)O)NC2=O)NC(=O)[C@H]([C@@H](C)O)NC(=O)[C@H](CC(N)=O)NC(=O)[C@H](CO)NC1=O)[C@@H](C)CC)[C@@H](C)CC)C(C)C | inactive | inactive | inactive | inactive | inactive | inactive | inactive | inactive | inactive | inactive | inactive | inactive | Activity [20]: Active; Activity [21]: Active; Activity [22]: Active; Activity [23]: Active; Activity [24]: Active; Activity [25]: Active |
